The values below are quoted from earlier work in patent US11503825B2, “Pyrethroid formulations” (Vive Crop Protection Inc., priority 2011, dated 2022).

The term pKa denotes the pH at which an ionisable group is half protonated.

Converted amounts (≈) assume the structure as drawn. “Also recorded” adds a separate entry of the source. Like-named read-outs stand apart in the source and are kept apart here.

For series [1] the following is noted: cited from earlier work; for Photolytic stability: in words; for Photolysis DT50: aqueous solution.
The conditions of series [2]: cited from earlier work; for Stability data: in words.
The conditions of series [3]: cited from earlier work.
For series [4] the following is noted: hydrolysis prevents measurement; cited from earlier work.
For series [5] the following is noted: cited from earlier work. This is another data set of the same source.

As to `CC1(C)C(C=C(Cl)Cl)C1C(=O)OCc1cccc(Oc2ccccc2)c1` (stereo not drawn) [Permethrin, 3-phenoxybenzyl (1RS,3RS;1RS,3SR)-3-(2,2-dichlorovinyl)-2,2-dimethylcyclopropanecarboxylate], the Photolytic stability entry in series [1] is on record as “Photolysis in water^++”. In addition, the DT50 entry in series [2] (pH 5, 7, 25° C.) is reported as “stable”. Moreover, the “DT50 (hydrolysis)” value in series [2] (pH 9, 25° C.) is 50 days. In addition, the Solubility in methanol in series [3] (25° C.) was 258 (all in g/kg, 25° C.). In addition, the “Solubility in xylene, hexane” value in series [3] (25° C.) is given as “xylene, hexane >1000, methanol g/kg”. Moreover, the Solubility in water entry is “water 6 × 10^−3mg/l (pH 7, 20° C.);” in series [3] (pH 7, 20° C.) and “stated, 25° C.); trans- isomers 0.13 mg/l” in series [3] (trans- isomers, pH not stated, 25° C.).

For “A mixture of the enantiomers (R)-α-cyano-3-phenoxybenzyl (1S,3R)-3-(2,2-dichlorovinyl)-2,2-dimethylcyclopropanecarboxylate and (S)-α-cyano-3-phenoxybenzyl (1R,3S)-3-(2,2-dichlorovinyl)-2,2-dimethylcyclopropanecarboxylate in the ratio 1:1 [Theta-cypermethrin]”, the “DT50 (extrapolated)” value was 50 days in series [2] (pH 3, 5, 6, 25° C.); 20 days in series [2] (pH 7, 25° C.); 18 days in series [2] (pH 8, 25° C.); 10 days in series [2] (pH 9, 25° C.).

Consider `CC1(C)[C@H](C(=O)O[C@@H](C#N)c2cccc(Oc3ccccc3)c2)[C@@H]1/C=C(\Cl)C(F)(F)F` (racemic) [Cyhalothrin, (RS)-α-cyano-3-phenoxybenzyl (Z)-(1RS,3RS)-3-(2-chloro-3,3,3-trifluoroprop-1-enyl)-2,2-dimethylcyclopropanecarboxylate], for which, in series [1], the Photolytic stability result was “Stable to light; slow hydrolysis by water in”. Further, the Stability data result in series [2] was “Slowly hydrolyzed by water in sunlight at pH 7-9,; also recorded: more rapidly at pH >9”. For the same molecule, the pKa in series [4] was over 9. Moreover, the “Solubility in acetone, dichloromethane, methanol, diethyl ether, ethyl acetate, hexane, toluene” value in series [3] is reported as “acetate, hexane, toluene: >500 g/L”. The Solubility in water result in series [3] (pH 5, 20° C.) is on record as “water: 4.2 ug/L (pH 5, 20° C.)”. Besides, the “KOW logP” value in series [5] (20° C.) is “logP = 6.9”.

With `CC1(C)[C@H](C(=O)O[C@H](C#N)c2cccc(Oc3ccccc3)c2)[C@@H]1C=C(Br)Br` [Deltamethrin, (S)-α-cyano-3-phenoxybenzyl (1R,3R)-3-(2,2-dibromovinyl)-2,2-dimethylcyclopropanecarboxylate], the Photolytic stability result in series [1] is “Ester bond splitting and bromine loss under”. In series [2], the Stability data result is “stable at pH 5 and 7”. The DT50 in series [2] (pH 8) was 31 days; in series [2] (pH 9), 2.5 days. Moreover, the “KOW logP” value in series [5] (25° C.) was “logP = 4.6”.

Take `CC1(C)C(C=C(Cl)Cl)C1C(=O)OC(C#N)c1cccc(Oc2ccccc2)c1` (racemic) [Alpha-cypermethrin, A racemate comprising (S)-α-cyano-3-phenoxybenzyl (1R,3R)-3-(2,2-dichlorovinyl)-2,2-dimethylcyclopropanecarboxylate and (R)-α-cyano-3-phenoxybenzyl (1S,3S)-3-(2,2-dichlorovinyl)-2,2-dimethylcyclopropanecarboxylate]: the “DT50 (hydrolysis)” value in series [2] (pH 4, 50° C.) was “stable over 10 d”; in series [2] (pH 7, 20° C.), 101 days; in series [2] (pH 9, 20° C.), 7.3 days.

As for `CC1(C)C(C=C(Cl)Cl)C1C(=O)OC(C#N)c1cccc(Oc2ccccc2)c1` (racemic) [Zeta-cypermethrin, A mixture of the stereoisomers (S)-α-cyano-3-phenoxybenzyl (1RS,3RS;1RS,3SR)-3-(2,2-dichlorovinyl)-2,2-dimethylcyclopropanecarboxylate where the ratio of the (S);(1RS,3RS) isomeric pair to the (S);(1RS,3SR) isomeric pair lies in the ratio range 45-55 to 55-45], the “Photolysis DT50” value in series [1] is listed as “Photolysis DT50 (aqueous solution) 20-26 days^+”. The “Hydrolysis DT50” value in series [2] (pH 7, 25° C.) was 25 days; in series [2] (pH 9, 50° C.), 1.5 h (pH 9, 50° C.).

As for `CC(C)[C@H](C(=O)O[C@H](C#N)c1cccc(Oc2ccccc2)c1)c1ccc(Cl)cc1` [Esfenvalerate, (S)-α-cyano-3-phenoxybenzyl (S)-2-(4-chlorophenyl)-3-methylbutyrate], in series [1], the Photolytic stability result was “Stable^+”. Further, the Stability data result in series [2] is “Stable to hydrolysis at pH 5, 7 and 9 (25° C.)”. In series [3] (20° C.), the Solubility in hexane was 77 mg/mL (≈ 183 mM); the Solubility in water result is given as “water 0.002 mg/l (20° C.)”; the “Solubility in xylene, acetone, chloroform, ethanol, methanol, DMF, hexylene glycol” value is over 450 mg/mL. Moreover, in series [5] (pH 7, 25° C.), the “KOW logP” value was “logP = 6.5”.

For the molecule `CC1(C)[C@H](C(=O)O[C@H](C#N)c2cccc(Oc3ccccc3)c2)[C@@H]1/C=C(\Cl)C(F)(F)F` [Gamma-cyhalothrin, (S)-α-cyano-3-phenoxybenzyl (Z)-(1R,3R)-3-(2-chloro-3,3,3-trifluoroprop-1-enyl)-2,2-dimethylcyclopropanecarboxylate], in series [1], the “Photolysis DT50” value is “Photolysis DT50 (aqueous solution) 10.6 days^+”. The Solubility in water result in series [3] (20° C.) was “water 2.1 × 10^−3 mg/l (20° C.)”. Further, the “KOW logP” value in series [5] (19° C.) is recorded as “logP = 4.96”.

Consider `CC(C)=CC1C(C(=O)OCc2coc(Cc3ccccc3)c2)C1(C)C` (stereo not drawn) [Resmethrin, 5-benzyl-3-furylmethyl (1RS,3RS;1RS,3SR)-2,2-dimethyl-3-(2-methylprop-1-enyl)cyclopropane carboxylate], for which, in series [1], the Photolytic stability entry is “Decomposes rapidly on exposure to air and light^+”. Also, in series [2], the Stability data entry is “Unstable in alkaline media”. For the same molecule, the Solubility in water entry in series [3] (25° C.) was “water 37.9 μg/l (25° C.)”. Also, in series [3] (m/v, 20° C.), the Solubility in acetone entry is listed as “acetone c. 30%, chloroform,”; the “Solubility in chloroform, dichloromethane, ethyl acetate, toluene” value is recorded as over 50%; the “Solubility in ethanol, n-octanol” value is “ethanol, n-octanol c. 6%, n-hexane”; the “Solubility in isopropyl ether” value was about 25%. Moreover, in series [3] (m/v, 20° C.), the Solubility in methanol entry was “methanol c. 3% (all m/v, 20° C.)”; the Solubility in n-hexane is on record as about 10%; the Solubility in xylene was over 40%. Further, the “KOW logP” value in series [5] (25° C.) is on record as “logP = 5.43”.

As for `Cc1c(COC(=O)[C@@H]2[C@H](/C=C(\Cl)C(F)(F)F)C2(C)C)cccc1-c1ccccc1` (racemic) [Bifenthrin, 2-methylbiphenyl-3-ylmethyl (Z)-(1RS,3RS)-3-(2-chloro-3,3,3-trifluoroprop-1-enyl)-2,2-dimethylcyclopropanecarboxylate], the “Photolytic stability DT50” value in series [1] (in natural daylight) was “DT50 255 days in natural daylight^+”. The “Soil DT50 (lab.)” value in series [2] (range) is 53 to 192 days.

For Beta-cypermethrin, in series [2], the Stability data result is “Hydrolyzed in strongly alkaline media. DT50”. The “DT50 (extrapolated)” value in series [2] (pH 3, 5, 6, 25° C.) is 50 days; in series [2] (pH 7, 25° C.) it was 40 days; in series [2] (pH 8, 25° C.), 20 days; in series [2] (pH 9, 25° C.), “(pH 8), 15 d (pH 9) (all at 25° C.)”. For the same molecule, the “KOW logP” value in series [5] is “logP = 4.7”.

Take `CC1(C)C(C=C(Cl)Cl)C1C(=O)OC(C#N)c1cccc(Oc2ccccc2)c1` (racemic) [Cypermethrin, (RS)-α-cyano-3-phenoxybenzyl (1RS,3RS;1RS,3SR)-3-(2,2-dichlorovinyl)-2,2-dimethylcyclopropanecarboxylate]: the “DT50 (hydrolysis)” value in series [2] (pH 9, 25° C.) was 1.8 days.

`CC(C)[C@@H](C(=O)O[C@@H](C#N)c1cccc(Oc2ccccc2)c1)c1ccc(Cl)cc1` (racemic) [Fenvalerate, (RS)-α-cyano-3-phenoxybenzyl (RS)-2-(4-chlorophenyl)-3-methylbutyrate]: the Photolytic stability entry in series [1] is listed as “Decarboxylation occurs in light^+”. Besides, in series [2], the Stability data result is “rapidly hydrolyzed in alkaline media”. In series [3] (20° C.), the Solubility in methanol entry is on record as “methanol 84 (all in g/l, 20° C.)”; the Solubility in n-hexane is 53 g/L (≈ 126 mM); the Solubility in xylene was over 200 g/L. In addition, the Solubility in water entry in series [3] (25° C.) is given as “water <10 μg/l (25° C.)”. In series [5] (23° C.), the “KOW logP” value was “logP = 5.01”.
